Measurements: patent US20110052551A1, “CARDIAC MYOCYTE MORPHOGENIC COMPOSITIONS AND METHODS OF USE THEREFOR” (priority 2008, published 2011)
Entries after “also recorded” stand apart in the source; their conditions may differ.

Experiments:
Assay type in all cases: cell-based, mice
[1] = tested on: JNK phosphorylation in BMMNCs; assay: Western immunoblotting of Wnt11-induced JNK phosphorylation; settings: 1 μM, 3 hours in Wnt11-CM
Procedure: Assessment of Wnt signaling. To investigate non-canonical signaling pathways, freshly isolated unfractionated BMMNCs were cultured in Wnt11-CM or in empty vector (control) medium in the presence or absence of 1 μM of the PKC inhibitor bisindolylmaleimide I (BIM, Sigma) for 3 hours followed by harvest and assessment of JNK phosphorylation by Western immunoblotting (see below and FIG. 9B). The expression of cardiac-specific gene expression in unfractionated BMMNCs was assessed by qRT-PCR following culture for 3 days in Wnt11-CM and empty vector (control) medium with and without PKC (BIM; 1 μM) and JNK (SP600125; 10 μM; Sigma) inhibitors (see FIG. 9B). Expression of Wnt3a and β-catenin were measured by qRT-PCR to investigate the effect of control, Wnt3a medium, and Wnt11-CM on canonical signaling.
(§1) Western immunoblotting and quantitative ELISA. […] Gel transfer efficiency was recorded carefully by making photocopies of membranes dyed with reversible Ponceau staining; gel retention was determined by Coomassie blue staining. […] Immunoreactive bands were visualized with horseradish peroxidase-conjugated anti-goat and anti-rabbit IgG (Santa Cruz Biotechnology) using an ECL detection kit (New England Nuclear, Billerica, Mass., United States of America), quantified by densitometry, and normalized GAPDH. […]

unfractionated BMMNCs [2] = assay: qRT-PCR of Wnt11-induced cardiac gene expression with PKC and JNK inhibitors; settings: 3 days in Wnt11-CM, BIM 1 μM, SP600125 10 μM
Procedure: Assessment of mRNA expression by quantitative real-time RT-PCR (qRT-PCR). All qRT-PCR reagents and primers were purchased from Qiagen Inc. (Valencia, Calif., United States of America). Prior to mRNA extraction, cell number was determined and calculated by Trypan blue exclusion. cDNA was generated from freshly isolated (designated as baseline) and cultured unfractionated BMMNCs at days 0, 3, 7, and 21 (see FIG. 9A) using QUANTISCRIPT REVERSE TRANSCRIPTASE™ (Qiagen Inc., Valencia, Calif., United States of America) contained in RT master mix of Cell to cDNA kits according to manufacturer's protocol. […]
To avoid amplification of contaminating DNA, all validated qRT-PCR primers were designed to cross […] sequences within the cDNA to be amplified. Quantitative qRT-PCR analysis was performed in an ABI Prism 7900H sequence detection system (Applied Biosystems, Foster City, Calif.) using QUANTITECT™ SYBR® Green Real Time PCR kits. Each 50 μl qRT-PCR reaction contained 2 μl (approximately 50 ng) of cDNA, 5 μl of 1× primer mix (containing approximately 500 nM sense and anti-sense primers) and 25 μl of 2× QUANTITECT™ SYBR® Green master mix. […]
The PCR product level is calculated from the threshold cycle (Ct). That is, the amplification cycle number at which exponential PCR-generated gene-specific fluorescence is first detected (above a fixed threshold level). […]

unfractionated BMMNCs [3] = assay: cTnI ELISA in cultured BMMNCs; settings: for effect on Wnt11-induced expression of cTnI: 21 days of culture in Wnt11-CM
Procedure: Assessment of cardiac differentiation. For quantitative assessment of cardiomyocytic differentiation, an average of 2400 cells/plate were counted. Multiple fields from all 4 quarters of the plate were systematically evaluated. The number of cells expressing cardiac-specific intracellular contractile proteins in each field was counted; the total number of cells was calculated based on nuclear staining with DAPI. In addition, cells were concomitantly stained with markers specific for various non-cardiac lineages (skeletal muscle [myogenin]; neural [nestin, GFAP]; myeloid [CD11b, Gr-1]; and others; Zuba-Surma et al., 2006). Cells were counted as positive when they were positive for cardiac-specific contractile proteins and negative for all of these markers. Thus, a rigorous method was employed to assess cardiac differentiation in vitro. The percentage of cells differentiating into cardiomyocytes was calculated as the number of cells positive for proteins divided by the total number of nuclei in the field. These experiments were performed in triplicate. As a confirmatory measure, the expression of cardiac-specific troponin I (cTnI) was determined by ELISA as described hereinbelow following culture in Wnt11-CM with and without the Wnt inhibitor Dickkopf-1 (Dkk-1; see FIG. 9C).
as §1, with “ELISA. Western analysis was performed as described in Guo et al., 1998; Brandon et al., 2000; Li et al., 2003; and Li et al., 2006.” for “ELISA.”, “GAPDH. In all samples, the content of target protein was expressed as a percentage of the controls (untreated), normalized to GAPDH.” for “GAPDH.”

Molecule | Wnt11-induced JNK phosphorylation [1] | Wnt11-induced cardiac gene expression (unfractionated BMMNCs [2]) | Wnt11-induced cardiac gene expression (unfractionated BMMNCs [2]; listed as bisindolylmaleimide I) | effect on Wnt11-induced expression of cTnI (unfractionated BMMNCs [3]) | effect on Wnt11-induced expression of cTnI (unfractionated BMMNCs [3]; listed as Dickkopf-1) | effect on cTnI expression by itself (unfractionated BMMNCs [3]; 21 days of culture, without Wnt11-CM)
CN(C)CCCn1cc(C2=C(c3c[nH]c4ccccc34)C(=O)NC2=O)c2ccccc21 [BIM, bisindolylmaleimide I] | completely blocked | abolished; also recorded: no expression | completely abolished | – | – | –
Dkk-1: soluble inhibitor of canonical signaling that blocks Wnt-signaling at the cell surface (protein, UniProt O94907 32-266, looked up) Dickkopf-related protein 1: TLNSVLNSNAIKNLPPPLGGAAGHPGSAVSAAPGILYPGGNKYQTIDNYQPYPCAEDEECGTDEYCASPTRGGDAGVQICLACRKRRKRCMRHAMCCPGNYCKNGICVSSDQNHFRGEIEETITESFGNDHSTLDGYSRRTTLSSKMYHTKGQEGSVCLRSSDCASGLCCARHFWSKICKPVLKEGQVCTKHRRKGSHGLEIFQRCYCGEGLSCRIQKDHHQASNSSRLHTCQRH | – | – | – | reduced | attenuated | little effect
